test system: MV4-11; test: Cellular MV4-11 viability assay (CellTiter-Glo, 72 hours); format: cell-based; conditions: Homo sapiens
Method in brief: (§1)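 72 h treatment, 37 °C, 5% CO2; DMSO ctrl, final <0.1%; CellTiter-Glo luminescence; n=2.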

IC50 [nM] | SMILES
< 1000 | CC(C)c1cnn2c(NCc3ccccc3-c3ccc4ccccc4n3)nc(N3CCNC[C@H]3CO)nc12 [Compound 271]

molecular target: T1, CDK5/p25 (Homo sapiens, UniProt Q00535); test: Enzymatic assay for CDK5 (FRET based LANCE Ultra kinase assay); format: biochemical; conditions: read-out: CDK5 enzymatic activity (IC50 activity range)
T1 construct: purchased Invitrogen PR8543B
Method in brief: (§2)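 LANCE Ultra TR-FRET: ULight-MBP peptide (68 nM) with ATP at Km, […], 60 min at 23° C. EDTA plus Eu-anti-phospho-MBP added, another 60 min, then 665/615 nm emission read. Compounds tested as 8-dose 4-fold DMSO dilutions.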

T1 sequence (Q00535 whole entry): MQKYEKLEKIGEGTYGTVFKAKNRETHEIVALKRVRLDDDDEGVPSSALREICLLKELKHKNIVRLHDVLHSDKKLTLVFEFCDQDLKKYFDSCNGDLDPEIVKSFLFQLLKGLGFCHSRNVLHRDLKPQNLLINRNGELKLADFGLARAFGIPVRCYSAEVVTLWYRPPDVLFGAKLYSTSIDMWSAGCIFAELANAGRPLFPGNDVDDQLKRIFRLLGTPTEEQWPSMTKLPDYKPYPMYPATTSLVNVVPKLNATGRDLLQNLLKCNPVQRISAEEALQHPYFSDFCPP
T1 sequence (Q15078 99-307 partner limits assumed): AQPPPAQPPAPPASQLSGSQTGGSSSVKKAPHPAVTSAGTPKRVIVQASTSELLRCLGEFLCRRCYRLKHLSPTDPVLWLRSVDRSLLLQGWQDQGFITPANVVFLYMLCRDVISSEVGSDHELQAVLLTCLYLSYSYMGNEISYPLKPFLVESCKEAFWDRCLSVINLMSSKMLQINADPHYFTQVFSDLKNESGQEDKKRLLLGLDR

IC50 [nM] | SMILES
> 1000 | CC(C)c1cnn2c(NCc3ccccc3-c3ccc4ccccc4n3)nc(N3CCNC[C@H]3CO)nc12 [Compound 271]
> 1000 | CC(C)c1cnn2c(NCc3c(Cl)cccc3-n3ccc(C(C)(C)O)n3)nc(Nc3cc[nH]c3)nc12 [Compound 277]
> 1000 | CC(C)c1cnn2c(NCc3ccccc3-c3nccc4cc(NC(=O)CCCN(C)C)ccc34)nc(NC[C@H]3CCNC[C@@H]3O)nc12 [Compound 278]
> 1000 | CC(C)c1cnn2c(NCc3ccccc3-c3nccc4ccccc34)nc(NC[C@H]3CCNC[C@@H]3O)nc12 [Compound 279]

test system: OVCAR-3; test: Cellular OVCAR-3 viability assay (CellTiter-Glo, 72 hours); format: cell-based; conditions: Homo sapiens
Description: Human T-cell acute lymphoblastic leukemia cell line, MOLT-4 (ATCC, Cat #CRL-1582), Human multiple myeloma cell line, RPMI-8226 (Invitrogen, Cat #22400-089) and MM.1S (ATCC, Cat #CRL-2974), NSCLC (Non-small cell lung cancer) cell line H460 (ATCC, Cat #HTB-177), Human colon colorectal carcinoma cell line HCT116 (ATCC, Cat #CCL-247), Human acute monocytic leukemia cell line MV4-11 (ATCC, Cat #CRL-9591), OVCAR-3 (ATCC, Cat #HTB-161) and A2780 (ECACC, Cat #93112519) were obtained from ATCC. Cells were grown in RPMI-1640 media (Invitrogen, Cat #22400-089) supplemented with 10% FBS (Invitrogen, Cat #10099141) and 1% penicillin/streptomycin (Invitrogen, Cat #15070063) and cultured at 37° C., 5% CO2 in a humidified chamber. All cell lines were routinely tested for mycoplasma.
The effect of the CDK7 inhibitor to inhibit the growth of target cancer cells was evaluated through the 72 hours time period of viability assay. Briefly, the candidate cell line ware plated in 96 well plate at the following density of cells respectively. 1×10^4 cells/well for MOLT-4, RPMI-8226, MV4-11 and MM.1S, 5×10^3 for H460, HCT116 and OVCAR-3 and IX 10^3 for A2780. After 24 hours, the cells were treated with various concentrations of the compound (ranging from 0.0015 uM to 10 uM). DMSO solvent without compound served as a control and final DMSO concentration less than 0.1%. After 72 hours of incubation at 37° C., 5% CO2 incubator, cells were analyzed for the viability using the CellTiter-Glo Luminescent Cell Viability Assay (Promega, Cat #G7570). All viability assays were performed in duplicate and Luminescence was read using an Envision (Perkin Elmer, USA). Data was analyzed using XLfit software.

IC50 [µM] | SMILES
≤ 1 | CC(C)c1cnn2c(NCc3ccccc3-c3ccc4ccccc4n3)nc(N3CCNC[C@H]3CO)nc12 [Compound 271]
> 10 | CC(C)c1cnn2c(NCc3c(Cl)cccc3-n3ccc(C(C)(C)O)n3)nc(Nc3cc[nH]c3)nc12 [Compound 277]
> 10 | CC(C)c1cnn2c(NCc3ccccc3-c3nccc4cc(NC(=O)CCCN(C)C)ccc34)nc(NC[C@H]3CCNC[C@@H]3O)nc12 [Compound 278]
1 to 10 | CC(C)c1cnn2c(NCc3ccccc3-c3nccc4ccccc34)nc(NC[C@H]3CCNC[C@@H]3O)nc12 [Compound 279]

molecular target: T2, CDK7/Cyclin H/MNAT1 (Homo sapiens, UniProt P50613); test: Enzymatic assay for CDK7 (FRET based LANCE Ultra kinase assay); format: biochemical; conditions: CDK1/CDK7
T2 construct: purchased Invitrogen PR6749B
Method in brief: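 LANCE Ultra TR-FRET kinase assay using a ULight-labeled peptide substrate and a Eu-labeled anti-phospho antibody, with ATP at its Km. Purified CDK/cyclin complex was added to compound after brief centrifugation.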

T2 sequence (P50613 whole entry): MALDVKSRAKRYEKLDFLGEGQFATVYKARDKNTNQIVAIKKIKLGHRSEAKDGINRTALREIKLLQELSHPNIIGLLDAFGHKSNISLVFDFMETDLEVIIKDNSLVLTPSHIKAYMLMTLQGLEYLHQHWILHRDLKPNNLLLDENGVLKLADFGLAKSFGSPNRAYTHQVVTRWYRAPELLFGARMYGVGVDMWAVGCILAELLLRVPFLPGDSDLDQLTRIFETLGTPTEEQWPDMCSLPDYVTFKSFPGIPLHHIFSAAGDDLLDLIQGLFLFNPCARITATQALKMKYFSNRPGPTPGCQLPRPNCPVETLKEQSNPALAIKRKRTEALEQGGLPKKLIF
T2 sequence (P51946 whole entry partner): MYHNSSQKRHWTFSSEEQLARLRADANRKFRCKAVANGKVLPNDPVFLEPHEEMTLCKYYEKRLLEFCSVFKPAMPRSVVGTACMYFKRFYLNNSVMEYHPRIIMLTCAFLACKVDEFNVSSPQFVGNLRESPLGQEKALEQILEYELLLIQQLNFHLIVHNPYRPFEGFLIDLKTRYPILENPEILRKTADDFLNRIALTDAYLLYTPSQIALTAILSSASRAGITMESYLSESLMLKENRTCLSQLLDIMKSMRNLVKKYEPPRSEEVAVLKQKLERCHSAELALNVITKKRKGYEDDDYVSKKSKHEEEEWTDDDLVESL
T2 sequence (P51948 whole entry partner): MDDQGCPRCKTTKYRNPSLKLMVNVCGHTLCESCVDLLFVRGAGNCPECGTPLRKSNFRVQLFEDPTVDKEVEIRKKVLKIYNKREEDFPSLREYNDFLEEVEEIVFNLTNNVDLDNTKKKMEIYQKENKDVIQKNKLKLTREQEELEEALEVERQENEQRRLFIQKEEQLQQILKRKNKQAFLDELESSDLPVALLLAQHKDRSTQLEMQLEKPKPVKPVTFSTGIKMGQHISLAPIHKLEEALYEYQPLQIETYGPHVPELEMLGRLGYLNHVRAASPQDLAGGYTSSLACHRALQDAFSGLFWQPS

CDK1/CDK7: Selectivity of CDK7 inhibition over CDK1 inhibition | SMILES
A (A=greater than 200 fold) | CC(C)c1cnn2c(NCc3ccccc3-c3ccc4ccccc4n3)nc(N3CCNC[C@H]3CO)nc12 [Compound 271]
C (C=less than 20 fold) | CC(C)c1cnn2c(NCc3c(Cl)cccc3-n3ccc(C(C)(C)O)n3)nc(Nc3cc[nH]c3)nc12 [Compound 277]
A (A=greater than 200 fold) | CC(C)c1cnn2c(NCc3ccccc3-c3nccc4cc(NC(=O)CCCN(C)C)ccc34)nc(NC[C@H]3CCNC[C@@H]3O)nc12 [Compound 278]

SMILES | CDK1/CDK7: Selectivity of CDK7 inhibition over CDK1 inhibition
CC(C)c1cnn2c(NCc3ccccc3-c3nccc4ccccc34)nc(NC[C@H]3CCNC[C@@H]3O)nc12 [Compound 279] | B (B=less than 200 fold, but greater than 20 fold)

same assay, conditions: CDK2/CDK7

CDK2/CDK7: Selectivity of CDK7 inhibition over CDK2 inhibition | SMILES
A (A=greater than 200 fold) | CC(C)c1cnn2c(NCc3ccccc3-c3ccc4ccccc4n3)nc(N3CCNC[C@H]3CO)nc12 [Compound 271]
C (C=less than 20 fold) | CC(C)c1cnn2c(NCc3c(Cl)cccc3-n3ccc(C(C)(C)O)n3)nc(Nc3cc[nH]c3)nc12 [Compound 277]
A (A=greater than 200 fold) | CC(C)c1cnn2c(NCc3ccccc3-c3nccc4cc(NC(=O)CCCN(C)C)ccc34)nc(NC[C@H]3CCNC[C@@H]3O)nc12 [Compound 278]

SMILES | CDK2/CDK7: Selectivity of CDK7 inhibition over CDK2 inhibition
CC(C)c1cnn2c(NCc3ccccc3-c3nccc4ccccc34)nc(NC[C@H]3CCNC[C@@H]3O)nc12 [Compound 279] | B (B=less than 200 fold, but greater than 20 fold)

same assay, conditions: CDK5/CDK7

CDK5/CDK7: Selectivity of CDK7 inhibition over CDK5 inhibition | SMILES
A (A=greater than 200 fold) | CC(C)c1cnn2c(NCc3ccccc3-c3ccc4ccccc4n3)nc(N3CCNC[C@H]3CO)nc12 [Compound 271]
C (C=less than 20 fold) | CC(C)c1cnn2c(NCc3c(Cl)cccc3-n3ccc(C(C)(C)O)n3)nc(Nc3cc[nH]c3)nc12 [Compound 277]
A (A=greater than 200 fold) | CC(C)c1cnn2c(NCc3ccccc3-c3nccc4cc(NC(=O)CCCN(C)C)ccc34)nc(NC[C@H]3CCNC[C@@H]3O)nc12 [Compound 278]

SMILES | CDK5/CDK7: Selectivity of CDK7 inhibition over CDK5 inhibition
CC(C)c1cnn2c(NCc3ccccc3-c3nccc4ccccc34)nc(NC[C@H]3CCNC[C@@H]3O)nc12 [Compound 279] | B (B=less than 200 fold, but greater than 20 fold)

same assay, conditions: read-out: CDK7 enzymatic activity (IC50 activity range)

IC50 [nM] | SMILES
< 100 | CC(C)c1cnn2c(NCc3ccccc3-c3ccc4ccccc4n3)nc(N3CCNC[C@H]3CO)nc12 [Compound 271]
> 1000 | CC(C)c1cnn2c(NCc3c(Cl)cccc3-n3ccc(C(C)(C)O)n3)nc(Nc3cc[nH]c3)nc12 [Compound 277]
< 100 | CC(C)c1cnn2c(NCc3ccccc3-c3nccc4cc(NC(=O)CCCN(C)C)ccc34)nc(NC[C@H]3CCNC[C@@H]3O)nc12 [Compound 278]
100 to 1000 | CC(C)c1cnn2c(NCc3ccccc3-c3nccc4ccccc34)nc(NC[C@H]3CCNC[C@@H]3O)nc12 [Compound 279]

test system: A2780; test: Cellular A2780 viability assay (CellTiter-Glo, 72 hours); format: cell-based; conditions: Homo sapiens
Method in brief: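 Cells seeded at 1×10^4/well (MM.1S), 5×10^3 (OVCAR-3) or 1×10^3 (A2780), grown in RPMI-1640 with 10% FBS. After 24 h, compound added at 0.0015–10 uM, final DMSO below 0.1%, for 72 h at 37° C. Viability read by CellTiter-Glo luminescence in duplicate, with curve fitting.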

IC50 [nM] | SMILES
≤ 1000 | CC(C)c1cnn2c(NCc3ccccc3-c3ccc4ccccc4n3)nc(N3CCNC[C@H]3CO)nc12 [Compound 271]
> 10000 | CC(C)c1cnn2c(NCc3c(Cl)cccc3-n3ccc(C(C)(C)O)n3)nc(Nc3cc[nH]c3)nc12 [Compound 277]
1000 to 10000 | CC(C)c1cnn2c(NCc3ccccc3-c3nccc4cc(NC(=O)CCCN(C)C)ccc34)nc(NC[C@H]3CCNC[C@@H]3O)nc12 [Compound 278]
≤ 1000 | CC(C)c1cnn2c(NCc3ccccc3-c3nccc4ccccc34)nc(NC[C@H]3CCNC[C@@H]3O)nc12 [Compound 279]

test system: H460; test: Cellular H460 viability assay (CellTiter-Glo, 72 hours); format: cell-based; conditions: Homo sapiens, NCI-H460
Method in brief: as §1

IC50 [nM] | SMILES
< 1000 | CC(C)c1cnn2c(NCc3ccccc3-c3ccc4ccccc4n3)nc(N3CCNC[C@H]3CO)nc12 [Compound 271]

molecular target: T3, CDK1/Cyclin B (Homo sapiens, UniProt P06493); test: Enzymatic assay for CDK1 (FRET based LANCE Ultra kinase assay); format: biochemical; conditions: read-out: CDK1 enzymatic activity (IC50 activity range)
T3 construct: purchased Invitrogen PR4768C
Method in brief: as §2

T3 sequence (P06493 whole entry): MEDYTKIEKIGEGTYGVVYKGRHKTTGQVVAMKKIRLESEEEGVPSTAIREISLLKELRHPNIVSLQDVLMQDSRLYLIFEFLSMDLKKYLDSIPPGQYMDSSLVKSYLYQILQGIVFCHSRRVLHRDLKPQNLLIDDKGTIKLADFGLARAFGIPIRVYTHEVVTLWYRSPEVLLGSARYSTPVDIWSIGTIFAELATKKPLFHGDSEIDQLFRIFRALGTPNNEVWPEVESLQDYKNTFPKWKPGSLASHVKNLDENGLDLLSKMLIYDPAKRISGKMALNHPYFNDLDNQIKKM
T3 sequence (P14635 whole entry partner): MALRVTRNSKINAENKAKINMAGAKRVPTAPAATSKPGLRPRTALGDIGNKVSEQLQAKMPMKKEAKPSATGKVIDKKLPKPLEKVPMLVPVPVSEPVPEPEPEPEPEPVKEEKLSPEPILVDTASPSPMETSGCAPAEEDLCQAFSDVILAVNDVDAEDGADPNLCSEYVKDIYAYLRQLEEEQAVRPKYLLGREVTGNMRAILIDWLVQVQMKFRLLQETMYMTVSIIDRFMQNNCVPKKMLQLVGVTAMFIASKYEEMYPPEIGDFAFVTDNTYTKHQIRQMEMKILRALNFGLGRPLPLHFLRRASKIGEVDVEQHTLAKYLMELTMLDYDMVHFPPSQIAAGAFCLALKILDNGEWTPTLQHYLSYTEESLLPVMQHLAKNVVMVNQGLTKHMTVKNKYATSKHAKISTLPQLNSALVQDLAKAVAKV

IC50 [nM] | SMILES
> 1000 | CC(C)c1cnn2c(NCc3ccccc3-c3ccc4ccccc4n3)nc(N3CCNC[C@H]3CO)nc12 [Compound 271]
> 1000 | CC(C)c1cnn2c(NCc3c(Cl)cccc3-n3ccc(C(C)(C)O)n3)nc(Nc3cc[nH]c3)nc12 [Compound 277]
> 1000 | CC(C)c1cnn2c(NCc3ccccc3-c3nccc4cc(NC(=O)CCCN(C)C)ccc34)nc(NC[C@H]3CCNC[C@@H]3O)nc12 [Compound 278]
> 1000 | CC(C)c1cnn2c(NCc3ccccc3-c3nccc4ccccc34)nc(NC[C@H]3CCNC[C@@H]3O)nc12 [Compound 279]

molecular target: T4, CDK2/Cyclin A (Homo sapiens, UniProt P24941); test: Enzymatic assay for CDK2 (FRET based LANCE Ultra kinase assay); format: biochemical; conditions: read-out: CDK2 enzymatic activity (IC50 activity range)
T4 construct: purchased Invitrogen PV6290
Method in brief: as §2

IC50 [nM] | SMILES
> 1000 | CC(C)c1cnn2c(NCc3ccccc3-c3ccc4ccccc4n3)nc(N3CCNC[C@H]3CO)nc12 [Compound 271]
> 1000 | CC(C)c1cnn2c(NCc3c(Cl)cccc3-n3ccc(C(C)(C)O)n3)nc(Nc3cc[nH]c3)nc12 [Compound 277]
> 1000 | CC(C)c1cnn2c(NCc3ccccc3-c3nccc4cc(NC(=O)CCCN(C)C)ccc34)nc(NC[C@H]3CCNC[C@@H]3O)nc12 [Compound 278]
> 1000 | CC(C)c1cnn2c(NCc3ccccc3-c3nccc4ccccc34)nc(NC[C@H]3CCNC[C@@H]3O)nc12 [Compound 279]

— patent US11945822B2, “Pyrazolo-triazine and/or pyrazolo-pxrimidine derivatives as selective inhibitor of cyclin dependent kinase” (QURIENT CO., LTD., priority 2018, dated 2024)
